Test results as given in patent publication US12344620B2, “BRD4 inhibitor compound in solid form and preparation method therefor and use thereof” (CSPC ZHONGQI PHARMACEUTICAL TECHNOLOGY (SHIJIAZHUANG) CO., …, priority 2019, dated 2025).

What was measured:
[1] = Solid stability test of the crystalline form A; assay type: physicochemical
[2] = Hygroscopicity study by dynamic vapor sorption (DVS); assay type: physicochemical; details: 25° C. and 80% RH
Protocol: • Instrument model: SMS DVS advantage dynamic vapor sorption analyzer • Testing conditions: the sample (10-20 mg) was placed in DVS sample trays for testing. Detailed DVS Parameters: • Temperature: 25° C. • Balancing: dm/dt=0.01%/min (shortest: 10 min, longest: 180 min) • Drying: drying for 120 min at 0% RH • RH (%) testing step: 10% • RH (%) testing step range: 0%-90%-0%
The evaluation of hygroscopicity was classified as follows:
• 10-15 mg of the crystalline form A of the compound of formula (I) was placed on a DVS sample tray for testing.

SMILES: Cc1sc2c(c1C)C(c1ccc(Cl)cc1)=N[C@@H](CC(=O)Nc1ccc3c(c1)COC3=O)c1nnc(C)n1-2
- Appearance ([1]; 0 day (initial)): White
- Content ([1]; 0 day (initial)): 98.7%
- Crystalline form (XRPD) ([1]; 0 day (initial)): form A
- Total impurity ([1]; 0 day (initial)): 0.17%
- Appearance ([1]; 25° C./60% RH, sealed, 90 days): White
- Content ([1]; 25° C./60% RH, sealed, 90 days): 99.4%
- Crystalline form (XRPD) ([1]; 25° C./60% RH, sealed, 90 days): form A
- Total impurity ([1]; 25° C./60% RH, sealed, 90 days): 0.12%
- Appearance ([1]; 40° C./75% RH, sealed, 90 days): White
- Content ([1]; 40° C./75% RH, sealed, 90 days): 99.2%
- Crystalline form (XRPD) ([1]; 40° C./75% RH, sealed, 90 days): form A
- Total impurity ([1]; 40° C./75% RH, sealed, 90 days): 0.19%
- Solid stability (conclusion) ([1]; accelerated and prolonged conditions, 90 days): good stability
- Moisture absorption classification [2]: slightly hygroscopic
- ΔW, increase in weight by moisture sorption [2]: 1.789%
